For orientation: ED50 means the dose at which the effect has come halfway, by size or by number of responders.

Test [1] concerns Intestinal ulcer. Description: Indomethacin-induced intestinal ulceration (inflation technique). It counts as in vivo, Female RG-Wistar rats.
Test [2] relates to Antral ulcer. The experiment in a line: Indomethacin-induced antral ulceration. It counts as in vivo, Female RG-Wistar rats. How it is done:
Indomethacin-induced antral and intestinal ulceration
Female RG-Wistar rats weighing 120 to 150 g. each were fasted for 24 hours. Water was added ad libitum. The animals were then given access to food for one hour, and 30 minutes after the administration of the test compounds a 15-mg./kg. oral dose of indomethacin was administered. 24 hours after indomethacin treatment the animals were killed by overdose of ether. Stomachs and the entire intestine were removed, the stomachs were opened along the main curvature, and the total ulcerated area (ulceration index, mm^2) was determined.

For test [3], the system named is Gastric necrosis (gastric oedema and haemorrhagic injury). The experiment in a line: Gastric necrosis induced by acidic ethanol (cytoprotective activity). It counts as in vivo, Female RG-Wistar rats. As to conditions: for ED50: Rattus norvegicus, po, 1 h, acidic ethanol, p.o. The method, then:
Water was given ad libitum. […] One hour later the animals were killed by overdosing with ether. Stomachs were removed and opened along the major curvature. After cleaning the wet weight of the stomachs was determined, and the difference between the wet weight obtained and the wet weight of the stomachs of untreated (control) animals was calculated, in order to determine the degree of gastric oedema. The stomachs were then dried and the gastic lesions were observed visually. Lengths of lesions were measured in millimeters. (Derelanko and Long, Proc. Soc. Exp. Biol. and Med. 166, 394 (1981)), and the length of the average lesions per stomach was given. Degree of cytoprotection was expressed in % related to the control. The statistical evaluation of the results was carried out by the Student test.

Test [4] deals with Gastric acid secretion. Description: Gastric acid secretion inhibiting activity on Shay rats. It counts as in vivo, Female H-Wistar rats. The method, then:
Gastric acid secretion inhibiting activity on Shay rats (Gastroenterology, 5, 43-46 (1945)
Female H-Wistar rats weighing 120-150 g each were fasted for 24 hours. Water was added ad libitum. The pylorus of the animals was ligated under light ether narcosis. The test drugs were administered during the operation, partially orally, partially intraperitoneally. 4 hours after treatment the animals were killed by an overdose of ether. The stomach was excised and cut along the large curvature. The volume and the pH of the contents were determined and in each case the HCl production was determined by titration.

Test [5] relates to Aspirin-induced gastric ulceration. Description: Inhibition of aspirin-induced gastric ulceration. It counts as in vivo, Female H. Wistar rats. How it is done: Inhibition of aspirin-induced gastric ulceration
Female H. Wistar rats weighing 120 to 150 g each were fasted for 24 hours. Water was given ad libitum. The stomach ulcer was induced by oral administration of aspirin in a dose of 100 mg./kg. (in Tween 80 suspension). The test was given simultaneously with the administration of aspirin, orally. The animals were killed by overdose if ether, 4 hours after treatment. The stomach was excised and cut along the large curvature. The red-brownish erosions on the glandular surface were counted. When evaluating the test results, the number of ulcers per stomach and its proportion to the number of ulcers found in the stomachs of control animals (inhibition of ulceration) were determined.

Where [6] appears, read: indomethacin 15 mg./kg. p.o. with 25 mg./kg. p.o. test compound.
Where [7] appears, read: indomethacin 15 mg./kg. p.o. with 25 mg./kg. p.o. test compound, N 20.
Setting [8] is: read-out: Gastric oedema inhibition ED50.
[9] abbreviates: read-out: Haemorrhagic injury inhibition ED50.
The mark [10] stands for this setting: indomethacin 15 mg./kg. p.o. with 50 mg./kg. p.o. test compound.
[11] abbreviates: indomethacin 15 mg./kg. p.o. with 5 mg./kg. p.o. test compound.

Structures can show the parent of a compound that is named as a salt. Where two headings read alike, the source gives them in different places.

Consider `CN1CCN(CC(=O)N2c3ccccc3C(=O)Nc3cccnc32)CC1` [Pirenzepine, reference compound], for which, in test [1] (setting [6]), the “Intestinal ulcer, tensile strength 24 hours after indomethacin treatment” value (“Intestinal ulcer” below) is listed as 152 ± 8 mmHg. The “Antral ulcer, ulceration index” value in test [2] (setting [6]) came out at 12.0 mm^2 /stomach. Also, in test [2] (setting [7]), the “Antral ulcer, rats having no ulcer” value was 5.
Turning to `CC(=O)N(CCSc1ncccc1C(=O)c1ccccc1)C(C)=O` [B, 3-benzoyl-2-{[2-(N,N-diacetylamino)-ethyl]-thio}-pyridine], the ED50 in test [3] (setting [8]) came out at 1 mg/kg; in test [3] (setting [9]) it was 2 mg/kg.
In test [3] (25 mg./kg. p.o.), `CN/C(=N/CCSCc1nc[nH]c1C)NC#N` [cimetidine, reference compound] returned a Haemorrhagic injury of 82 ± 21 mm and a Haemorrhagic injury inhibition of 2%. In test [3] (25 mg./kg. p.o., N 8), this compound displayed an Oedema of 441 ± 82 mg. In test [3] (100 mg./kg. p.o.), this compound had a Haemorrhagic injury of 42 ± 13 mm, a Haemorrhagic injury inhibition of 46% and an Oedema inhibition of 21%. In test [3] (100 mg./kg. p.o., N 8), this compound returned an Oedema of 301 ± 42 mg. In addition, the “Intestinal ulcer” value in test [1] (setting [10]) was 161 ± 8 mmHg. Further, the “Antral ulcer, ulceration index” value in test [2] (setting [10]) is recorded as 14.7 mm^2 /stomach. Besides, the “Antral ulcer, rats having no ulcer” value in test [2] (indomethacin 15 mg./kg. p.o. with 50 mg./kg. p.o. test compound, N 10) was found to be 2.
Regarding `CCCc1cc(C(=O)c2ccccc2)cc(SCCN)n1` [Compound E, 2-[(2-aminoethyl)-thio]-4-benzoyl-6-propylpyridine.2 HCl], the ED50 in test [3] (setting [8]) was 20 mg/kg; in test [3] (setting [9]), 25 mg/kg.
For `Cc1ccc(C)c(C(=O)c2cccnc2SCCN)c1` [D, 2-[(2-aminoethyl)-thio]-3-(2,5-dimethylbenzoyl)pyridine.HCl], in that order: 10 mg/kg and 10 mg/kg.
Regarding `NCCSc1ncccc1C(=O)c1ccccc1` [Compound A, 2-[(2-aminoethyl)-thio]-3-benzoyl-pyridine.HCl], the Haemorrhagic injury is 48 ± 19 mm in test [3] (0.05 mg./kg. p.o.), 38 ± 18 mm in test [3] (0.1 mg./kg. p.o.), 5 ± 1.5 mm in test [3] (1.0 mg./kg. p.o.) and 6 ± 3 mm in test [3] (10.0 mg./kg. p.o.). In addition, the Haemorrhagic injury inhibition stood at 45% in test [3] (0.05 mg./kg. p.o.); 56% in test [3] (0.1 mg./kg. p.o., p < 0.05); 96% in test [3] (1.0 mg./kg. p.o., p < 0.01); 94% in test [3] (10.0 mg./kg. p.o., p < 0.01). Moreover, the Oedema inhibition in test [3] (0.05 mg./kg. p.o.) was found to be 19%; in test [3] (0.1 mg./kg. p.o., p < 0.05), 45%; in test [3] (10.0 mg./kg. p.o., p < 0.01) it was 95%. Moreover, the Oedema in test [3] (0.05 mg./kg. p.o., N 8) is 307 ± 42 mg; in test [3] (0.1 mg./kg. p.o., N 10), 209 ± 51 mg; in test [3] (1.0 mg./kg. p.o., N 12), 72 ± 28 mg; in test [3] (10.0 mg./kg. p.o., N 12) it was 22 ± 12 mg. Also, the ED50 in test [3] (setting [8]) amounted to 0.2 mg/kg; in test [3] (setting [9]) it was 0.1 mg/kg. For the same compound, the “gastrocytoprotective activity after indomethacin pre-treatment” value in test [3] (indomethacin pre-treatment) is given as “not eliminated by indomethacin pre-treatment”. The “gastrocytoprotective activity, selectivity in words” value in test [3] (versus gastric acid secretion inhibition) is given as “selective gastrocytoprotective activity”. The “Secretion HCl inhibition” value in test [4] (5 mg./kg. p.o.) is reported as 37%; in test [4] (6 mg./kg. i.p.), 11%; in test [4] (10 mg./kg. p.o.), 38%; in test [4] (12 mg./kg. i.p., p < 0.01), 65%; in test [4] (20 mg./kg. p.o.) it was 34%; in test [4] (25 mg./kg. i.p.), 100%. Besides, the “Secretion HCl inhibition” value in test [4] (40 mg./kg. p.o., p < 0.01) was determined as 70%. The “Secretion HCl/4 hours” value in test [4] (5 mg./kg. p.o., N 5) is 357 ± 35 μmol/100 g body weight; in test [4] (6 mg./kg. i.p., N 5) it was 505 ± 29 μmol/100 g body weight; in test [4] (10 mg./kg. p.o., N 15), 350 ± 38 μmol/100 g body weight; in test [4] (12 mg./kg. i.p., N 10), 200 ± 30 μmol/100 g body weight; in test [4] (20 mg./kg. p.o., N 15), 372 ± 40 μmol/100 g body weight; in test [4] (25 mg./kg. i.p., N 5), 0 μmol/100 g body weight. The “Secretion HCl/4 hours” value in test [4] (40 mg./kg. p.o., N 5) was 124 ± 27 μmol/100 g body weight. For the same compound, the “higher dose at which gastric acid secretion inhibiting activity was observed (relative to gastrocytoprotective dose)” value in test [4] (selectivity of cytoprotection over acid secretion inhibition) is on record as “about 500 times”. Besides, the entries for the “Intestinal ulcer” value in test [1] (setting [11]) and in test [1] (setting [6]) were 162 ± 14 mmHg and 198 ± 9 mmHg, respectively. Besides, the results for the “Antral ulcer, ulceration index” value in test [2] (setting [11]) and in test [2] (setting [6]) were 18.9 mm^2 /stomach and 4.0 mm^2 /stomach, respectively. Also, the “Antral ulcer, rats having no ulcer” value in test [2] (indomethacin 15 mg./kg. p.o. with 5 mg./kg. p.o. test compound, N 15) turned out to be 3; in test [2] (setting [7]), 12. The “Inhibition (of ulceration)” value in test [5] (aspirin 100 + test compound 1 mg./kg.p.o.) came out at 38%; in test [5] (aspirin 100 + test compound 2 mg./kg.p.o.) it was 47%; in test [5] (aspirin 100 + test compound 10 mg./kg.p.o.), 76%. Besides, the Ulcer/Stomach is reported as 9.4 + 4.1 in test [5] (aspirin 100 + test compound 1 mg./kg.p.o., N 20); 8.0 + 3.0 in test [5] (aspirin 100 + test compound 2 mg./kg.p.o., N 10); 3.7 + 4.5 in test [5] (aspirin 100 + test compound 10 mg./kg.p.o., N 10).
For the compound `NCCSc1ncccc1C(=O)c1ccc(Cl)cc1` [C, 2-[(2-aminoethyl)-thio]-3-(p-chlorobenzoyl)-pyridine.HCl], the ED50 turned out to be 10 mg/kg in test [3] (setting [8]) and 15 mg/kg in test [3] (setting [9]).

The record behind these values is US4691017A, “2-hydroxy-and 2-halo-ethylthiopyridine intermediates for preparing antiulcer compounds” (Richter Gedeon Vegyeszeti Gyar Rt., priority 1984, dated 1987).
